These are literature values, as cited in paper PMC8050614 (Journal of bone and mineral research : the official journal …, 2019).

The subject of series [1] is young wild-type mice. The settings on record: 8 weeks of treatment.
The subject of series [2] is wild-type mice. The settings on record: injection at 50 nmol/kg.

Turning to `NCCCC(O)(P(=O)(O)O)P(=O)(O)O` [alendronate], in series [1], the “osteoclast size and/or number” value was “increase” and the “serum CTX1” value is recorded as “decrease”. hPTH(1–34)NH2: in series [2], the hypercalcemic response result is listed as “frank hypercalcemic response”.
